From paper PMC5490157 (DARU Journal of Pharmaceutical Sciences, 2017)
Values joined by “and” are separate entries in the source; they are usually repeats but may differ in a detail not shown here. Equal values may be shown once. Marks after values point to notes of the source that are not given here.

How the values were obtained:
[1] = Isolated perfused rat liver, single-pass perfusion with MRZ-containing Krebs-Henselit buffer, control vs MDMA-pretreated rats; perfusate analysed by HPLC; details: for Mean outlet perfusate concentration at four latest samples / Metabolic ratio (metabolite concentration divided by MRZ concentration) at four latest sampling time intervals: mean ± SD; for CLh (hepatic clearance) / CLint (intrinsic clearance): ±SD; for AUC(0-t) at 1 μg/ml: rat, isolated perfused rat liver (single-pass); for Decrease in metabolite concentration, treatment vs control: four latest samples; for Decrease in metabolic ratio, treatment vs control: four latest sampling time intervals
CYP2D6 [2] = assay: Effect of MDMA on CYP2D6-mediated MRZ metabolism (8-OH formation) in isolated perfused rat liver; details: MDMA 3 mg/kg IP 1 hour before MRZ perfusion; inferred from 8-OH formation
CYP3A4 = assay: Effect of MDMA on CYP3A4-mediated MRZ metabolism (NDES formation) in isolated perfused rat liver; details: MDMA 3 mg/kg IP 1 hour before MRZ perfusion; inferred from NDES formation
CYP2D6 [3] = system: CYP2D6; parameters: method as in PMID 16714321; details: irreversible inhibition of CYP2D6; cited from earlier work
[4] = MDMA 3 mg/kg IP 1 hour before MRZ
[5] = control group (n = 6), MRZ inlet 1 μg/ml
[6] = treatment group (MDMA 3 mg/kg IP 1 hour before), individual rats 1-6
[7] = treatment group (n = 6), MDMA 3 mg/kg IP 1 hour before MRZ 1 μg/ml
[8] = treatment group (n = 6), MDMA 3 mg/kg IP 1 hour before
[9] = control group, individual rats 1-6, metabolite formed from MRZ 1 μg/ml
[10] = treatment group (MDMA 3 mg/kg IP 1 hour before), mean (n = 6)

CN1CCN2c3ncccc3Cc3ccccc3C2C1 (stereo not drawn) [MRZ, Mirtazapine, reference compound]
Decrease in CLint, treatment vs control [1, 4]: 60%
Increase in AUC (0–120) of parent drug, treatment vs control [1, 4]: 50%
Mean outlet perfusate concentration at four latest samples [1, 5]: 131.9 ± 56.9 ng/mL
CLh (hepatic clearance) ([1]; control group (n = 6), CLh=Q×E, Q 8.3 ml/min): 7.2 ± 0.5 mL/min and 7.21 ± 0.47 mL/min
CLint (intrinsic clearance) ([1]; control group (n = 6), CLint=E×Q/F): 63.4 ± 25.8 mL/min and 63.4 ± 25.81 mL/min
AUC (0–120) MRZ Control ([1]; control group, individual rats 1-6): 9928.7 ng.min/ml and 16,443.6 ng.min/ml and 10,611.4 ng.min/ml and 13,295.1 ng.min/ml and 19,497.1 ng.min/ml
AUC(0-t) at 1 μg/ml ([1]; AUC (0–120) MRZ Control, MEAN, control group, mean (n = 6)): 237 ng·h/mL
AUC(0-t) at 1 μg/ml ([1]; AUC (0–120) MRZ Control, control group, individual rats 1-6): 259 ng·h/mL
AUC(0-t) at 1 μg/ml ([1]; ip, 3 mg/kg, AUC (0–120) MRZ Treatment, MEAN, treatment group (MDMA 3 mg/kg IP 1 hour before), mean (n = 6)): 358 ng·h/mL
AUC(0-t) at 1 μg/ml ([1]; ip, 3 mg/kg, AUC (0–120) MRZ Treatment, treatment group (MDMA 3 mg/kg IP 1 hour before), individual rats 1-6): 401 ng·h/mL
AUC (0–120) MRZ Treatment [1, 6]: 18,031.1 ng.min/ml and 17,675.6 ng.min/ml and 23,553.7 ng.min/ml and 23,063.4 ng.min/ml and 22,680.5 ng.min/ml
Mean outlet perfusate concentration at four latest samples [1, 7]: 236.8 ± 44.7 ng/mL
CLh (hepatic clearance) [1, 8]: 6.3 ± 0.4 mL/min and 6.33 ± 0.37 mL/min
CLint (intrinsic clearance) [1, 8]: 27.7 ± 6.3 mL/min and 27.71 ± 6.26 mL/min

CN1CCN2c3ncc(O)cc3Cc3ccccc3C2C1 (stereo not drawn) [8-OH, 8-hydroxymirtazapine]
Decrease in AUC (0–120) of metabolite, treatment vs control [1, 4]: 70%
Mean outlet perfusate concentration at four latest samples [1, 5]: 10.3 ± 3.2 ng/mL
Metabolic ratio (metabolite concentration divided by MRZ concentration) at four latest sampling time intervals ([1]; control group (n = 6)): 0.1 ± 0.05
AUC (0–120) 8-OH Control [1, 9]: 2124.9 ng·min/mL and 1398.9 ng·min/mL and 1960.2 ng·min/mL and 1674.1 ng·min/mL and 610.9 ng·min/mL and 588.2 ng·min/mL
AUC (0–120) 8-OH Control, MEAN ([1]; control group, mean (n = 6)): 1392.9 ng·min/mL
Decrease in metabolite concentration, treatment vs control [1, 4]: 50%
Decrease in metabolic ratio, treatment vs control [1, 4]: 83%
AUC (0–120) 8-OH Treatment [1, 6]: 287.5 ng·min/mL and 398.6 ng·min/mL and 449.2 ng·min/mL and 415.4 ng·min/mL and 371.3 ng·min/mL and 920.5 ng·min/mL
AUC (0–120) 8-OH Treatment, MEAN [1, 10]: 473.7* ng.min/ml
Mean outlet perfusate concentration at four latest samples [1, 7]: 4.7 ± 2.9 ng/mL
Metabolic ratio (metabolite concentration divided by MRZ concentration) at four latest sampling time intervals [1, 8]: 0.02 ± 0.008

CNC(C)Cc1ccc2c(c1)OCO2 (stereo not drawn) [MDMA, 3,4-methylenedioxymethamphetamine]
Effect on CYP2D6 hepatic isoenzyme (CYP2D6 [2]): inhibitory effects
Effect on CYP3A4 hepatic isoenzyme (CYP3A4): inhibitory effects
Time after MDMA administration at which mechanism-based inhibition of most CYP2D6 isoenzymes is demonstrated (CYP2D6 [3]): ≤ 1 h

c1ccc2c(c1)Cc1cccnc1N1CCNCC21 (stereo not drawn) [NDES, N-desmethylmirtazapine]
Decrease in AUC (0–120) of metabolite, treatment vs control [1, 4]: 60%
Mean outlet perfusate concentration at four latest samples [1, 5]: 188.6 ± 63.44 ng/mL
Metabolic ratio (metabolite concentration divided by MRZ concentration) at four latest sampling time intervals ([1]; control group (n = 6)): 1.7 ± 0.8
AUC (0–120) NDES Control [1, 9]: 28,525.2 ng.min/ml and 22,505.4 ng.min/ml and 15,171.6 ng.min/ml and 18,839.8 ng.min/ml and 11,195.2 ng.min/ml and 12,075.7 ng.min/ml
AUC (0–120) NDES Control, MEAN ([1]; control group, mean (n = 6)): 18,052.1 ng.min/ml
Decrease in metabolite concentration, treatment vs control [1, 4]: 50%
Decrease in metabolic ratio, treatment vs control [1, 4]: 79%
AUC (0–120) NDES Treatment [1, 6]: 593.7 ng.min/ml and 12,111.8 ng.min/ml and 15,346.2 ng.min/ml and 5860.1 ng.min/ml and 10,613.3 ng.min/ml and 3605.2 ng.min/ml
AUC (0–120) NDES Treatment, MEAN [1, 10]: 8021.7* ng.min/ml
Mean outlet perfusate concentration at four latest samples [1, 7]: 98.5 ± 64.3 ng/mL
Metabolic ratio (metabolite concentration divided by MRZ concentration) at four latest sampling time intervals [1, 8]: 0.45 ± 0.3
